From patent US8952024B2, “Herbicidal pyrimidone derivatives” (E I du Pont de Nemours and Company, priority 2009, dated 2015)
Read-outs that look alike come from different tables or passages of the source.

What was measured:
Type in all cases: in vivo
[1] = test system: barnyardgrass (Echinochloa crus-galli); assay: Test A pre-/postemergence plant response; details: for pest or weed control at 125 g/ha / pest or weed control at 500 g/ha: Echinochloa crus-galli, 240 h
Summary of the method: (§1)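 Visual injury rating on a 0–100 scale (0 = no effect, 100 = complete control) was made versus untreated controls after about ten days in the greenhouse. Compounds, formulated in a non-phytotoxic solvent mix containing surfactant, were sprayed preemergence onto loam/sand soil and postemergence onto one- to two-leaf plants.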

corn (Zea mays) = assay: Test A pre-/postemergence plant response
Summary of the method: as §1

[2] = test system: giant foxtail (Setaria faberii); assay: Test A pre-/postemergence plant response; details: for pest or weed control at 125 g/ha / pest or weed control at 500 g/ha: Setaria faberi, 240 h
Summary of the method: as §1

[3] = test system: pigweed (Amaranthus retroflexus); assay: Test A pre-/postemergence plant response; details: for pest or weed control at 125 g/ha / pest or weed control at 500 g/ha: Amaranthus retroflexus, 240 h
Summary of the method: as §1

[4] = test system: galium (catchweed bedstraw, Galium aparine); assay: Test B pre-/postemergence plant response; details: Preemergence
Summary of the method: (§2)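 Seeds were sown in loam soil/sand blend and treated preemergence with compound in non-phytotoxic solvent mixture containing surfactant; postemergence sprays, same formulation, went onto plants 2 to 18 cm (1- to 4-leaf stage) in peat-based planting medium. Greenhouse 13 to 15 days, then visual rating versus untreated controls, 0 (no effect) to 100 (complete control).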

[5] = test system: nightshade (eastern black nightshade, Solanum ptycanthum); assay: Test B pre-/postemergence plant response; details: Preemergence
Summary of the method: as §2

[6] = test system: sunflower (common oilseed sunflower, Helianthus annuus); assay: Test B pre-/postemergence plant response; details: Preemergence
Summary of the method: as §2

[7] = test system: barnyardgrass (Echinochloa crus-galli); assay: Test B flooded paddy test
Summary of the method: (§3)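 Greenhouse-held for 13 to 15 days, treated pots were compared visually with controls and scored 0–100 (0, no effect). Treatment had been made into paddy water kept at 3 cm above the soil, with plants at the 2-leaf stage.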

[8] = test system: ducksalad (Heteranthera limosa); assay: Test B flooded paddy test
Summary of the method: as §3

rice (Oryza sativa) = assay: Test B flooded paddy test
Summary of the method: as §3

[9] = test system: umbrella sedge (Cyperus difformis); assay: Test B flooded paddy test
Summary of the method: as §3

[10] = 31 g ai/ha, scale 0 to 100 (0 no effect, 100 complete control)
[11] = 62 g ai/ha, scale 0 to 100, 0 no effect, 100 complete control
[12] = Postemergence, 125 g ai/ha, visual injury, 0 to 100 scale (0 no effect, 100 complete control), approx. ten days
[13] = Postemergence, 500 g ai/ha, 0 to 100 scale, 0 = no effect, 100 = complete control, approx. ten days
[14] = Preemergence, 125 g ai/ha, 0 to 100 scale, 0 = no effect, 100 = complete control
[15] = Preemergence, 500 g ai/ha, visual injury, 0 to 100 scale (0 no effect, 100 complete control), approx. ten days
[16] = 125 g ai/ha, scale 0 to 100, 0 no effect, 100 complete control
[17] = 250 g ai/ha, flooded paddy test, visual rating on 0 to 100 scale (0 no effect, 100 complete control) after 13 to 15 days
[18] = Flood (flooded paddy test), 31 g ai/ha, scale of 0 to 100 where 0 is no effect and 100 is complete control, 13 to 15 days
[19] = Flood (flooded paddy test), 62 g ai/ha, scale of 0 to 100 where 0 is no effect and 100 is complete control, 13 to 15 days
[20] = Flood (flooded paddy test), 125 g ai/ha, scale 0 to 100, 0 is no effect, 100 is complete control, 13 to 15 days

## Cc1c(F)cccc1-n1c(-c2ccccc2)ncc(C(=O)C2=C(O)CCCC2=O)c1=O [Compound 47, 3-(3-fluoro-2-methylphenyl)-5-[(2-hydroxy-6-oxo-1-cyclohexen-1-yl)carbonyl]-2-phenyl-4(3H)-pyrimidinone]
[1]; post-emergence, Postemergence, 125 g ai/ha, visual injury, 0 to 100 scale (0 no effect, 100 complete control), approx. ten days, read-out: Barnyardgrass plant response rating
  pest or weed control at 125 g/ha: 90%
[1]; post-emergence, Postemergence, 500 g ai/ha, 0 to 100 scale, 0 = no effect, 100 = complete control, approx. ten days, read-out: Plant response rating, Barnyardgrass
  pest or weed control at 500 g/ha: 100%
[1]; pre-emergence, Preemergence, 125 g ai/ha, 0 to 100 scale, 0 = no effect, 100 = complete control, read-out: Plant response rating, Barnyardgrass
  pest or weed control at 125 g/ha: 10%
[1]; pre-emergence, Preemergence, 500 g ai/ha, visual injury, 0 to 100 scale (0 no effect, 100 complete control), approx. ten days, read-out: Plant response rating, Barnyardgrass
  pest or weed control at 500 g/ha: 90%
Corn (Zea mays); Zea mays, post-emergence, 240 h, Postemergence, 125 g ai/ha, visual injury, 0 to 100 scale (0 no effect, 100 complete control), approx. ten days, read-out: Corn plant response rating
  plant injury at 125 g/ha: 0%
Corn (Zea mays); Zea mays, post-emergence, 240 h, Postemergence, 500 g ai/ha, 0 to 100 scale, 0 = no effect, 100 = complete control, approx. ten days
  Corn plant response rating (crop injury, 0 = no effect, 100 = complete kill) at 500 g/ha: 70%
Corn (Zea mays); Zea mays, pre-emergence, 240 h, Preemergence, 125 g ai/ha, 0 to 100 scale, 0 = no effect, 100 = complete control
  Corn plant response rating (crop injury, 0 = no effect, 100 = complete kill) at 125 g/ha: 0%
Corn (Zea mays); Zea mays, pre-emergence, 240 h, Preemergence, 500 g ai/ha, visual injury, 0 to 100 scale (0 no effect, 100 complete control), approx. ten days
  Corn plant response rating (crop injury, 0 = no effect, 100 = complete kill) at 500 g/ha: 0%
[2]; post-emergence, Postemergence, 125 g ai/ha, visual injury, 0 to 100 scale (0 no effect, 100 complete control), approx. ten days, read-out: Foxtail, Giant plant response rating
  pest or weed control at 125 g/ha: 90%
[2]; post-emergence, Postemergence, 500 g ai/ha, 0 to 100 scale, 0 = no effect, 100 = complete control, approx. ten days, read-out: Plant response rating, Foxtail, Giant
  pest or weed control at 500 g/ha: 100%
[2]; pre-emergence, Preemergence, 125 g ai/ha, 0 to 100 scale, 0 = no effect, 100 = complete control, read-out: Plant response rating, Foxtail, Giant
  pest or weed control at 125 g/ha: 50%
[2]; pre-emergence, Preemergence, 500 g ai/ha, visual injury, 0 to 100 scale (0 no effect, 100 complete control), approx. ten days, read-out: Plant response rating, Foxtail, Giant
  pest or weed control at 500 g/ha: 90%
[3]; post-emergence, Postemergence, 125 g ai/ha, visual injury, 0 to 100 scale (0 no effect, 100 complete control), approx. ten days, read-out: Pigweed plant response rating
  pest or weed control at 125 g/ha: 90%
[3]; post-emergence, Postemergence, 500 g ai/ha, 0 to 100 scale, 0 = no effect, 100 = complete control, approx. ten days, read-out: Plant response rating, Pigweed
  pest or weed control at 500 g/ha: 100%
[3]; pre-emergence, Preemergence, 125 g ai/ha, 0 to 100 scale, 0 = no effect, 100 = complete control, read-out: Plant response rating, Pigweed
  pest or weed control at 125 g/ha: 80%
[3]; pre-emergence, Preemergence, 500 g ai/ha, visual injury, 0 to 100 scale (0 no effect, 100 complete control), approx. ten days, read-out: Plant response rating, Pigweed
  pest or weed control at 500 g/ha: 100%
[4]; 250 g ai/ha, 0 to 100 scale
  Plant response rating, Galium: 95
[4]; [10]
  Plant response rating, Galium: 50
[4]; [11]
  Plant response rating, Galium: 50
[4]; 125 g ai/ha, 0 to 100 scale
  Galium plant response rating: 50
[5]; 250 g ai/ha, 0 to 100 scale
  Plant response rating, Nightshade: 100
[5]; [10]
  Plant response rating, Nightshade: 100
[5]; [11]
  Plant response rating, Nightshade: 100
[5]; 125 g ai/ha, 0 to 100 scale
  Nightshade plant response rating: 100
[6]; 250 g ai/ha, 0 to 100 scale
  Plant response rating, Sunflower: 85
[6]; [10]
  Plant response rating, Sunflower: 65
[6]; 125 g ai/ha, 0 to 100 scale
  Sunflower plant response rating: 80
[7]; Echinochloa crus-galli, 360 h, 250 g ai/ha, flooded paddy test, visual rating on 0 to 100 scale (0 no effect, 100 complete control) after 13 to 15 days, read-out: Plant response rating, Flood, Barnyardgrass
  pest or weed control at 250 g/ha: 20%
[7]; Echinochloa crus-galli, 360 h, Flood (flooded paddy test), 62 g ai/ha, scale of 0 to 100 where 0 is no effect and 100 is complete control, 13 to 15 days, read-out: Plant response rating, Barnyardgrass
  pest or weed control at 62 g/ha: 0%
[8]; Heteranthera limosa, 360 h, 250 g ai/ha, flooded paddy test, visual rating on 0 to 100 scale (0 no effect, 100 complete control) after 13 to 15 days, read-out: Plant response rating, Flood, Ducksalad
  pest or weed control at 250 g/ha: 95%
[8]; Heteranthera limosa, 360 h, Flood (flooded paddy test), 62 g ai/ha, scale of 0 to 100 where 0 is no effect and 100 is complete control, 13 to 15 days, read-out: Plant response rating, Ducksalad
  pest or weed control at 62 g/ha: 65%
Rice (Oryza sativa); Oryza sativa, 250 g ai/ha, flooded paddy test, visual rating on 0 to 100 scale (0 no effect, 100 complete control) after 13 to 15 days, read-out: Plant response rating, Flood, Rice
  plant injury at 250 g/ha: 25%
Rice (Oryza sativa); Oryza sativa, Flood (flooded paddy test), 62 g ai/ha, scale of 0 to 100 where 0 is no effect and 100 is complete control, 13 to 15 days, read-out: Plant response rating, Rice
  plant injury at 62 g/ha: 15%
[9]; Cyperus difformis, 360 h, 250 g ai/ha, flooded paddy test, visual rating on 0 to 100 scale (0 no effect, 100 complete control) after 13 to 15 days, read-out: Plant response rating, Flood, Sedge, Umbrella
  pest or weed control at 250 g/ha: 85%
[9]; Cyperus difformis, 360 h, Flood (flooded paddy test), 62 g ai/ha, scale of 0 to 100 where 0 is no effect and 100 is complete control, 13 to 15 days, read-out: Plant response rating, Sedge, Umbrella
  pest or weed control at 62 g/ha: 70%

## Cc1ccc(Cl)cc1-n1c(-c2ccccc2)ncc(C(=O)C2=C(O)CCCC2=O)c1=O [Compound 52]
[1]; [12]
  Barnyardgrass plant response rating: 90
[1]; [13]
  Plant response rating, Barnyardgrass: 90
[1]; [14]
  Plant response rating, Barnyardgrass: 40
[1]; [15]
  Plant response rating, Barnyardgrass: 100
Corn (Zea mays); [12]
  Corn plant response rating: 0
Corn (Zea mays); [13]
  Plant response rating, Corn: 70
Corn (Zea mays); [14]
  Plant response rating, Corn: 0
Corn (Zea mays); [15]
  Plant response rating, Corn: 10
[2]; [12]
  Foxtail, Giant plant response rating: 90
[2]; [13]
  Plant response rating, Foxtail, Giant: 100
[2]; [14]
  Plant response rating, Foxtail, Giant: 80
[2]; [15]
  Plant response rating, Foxtail, Giant: 100
[3]; [12]
  Pigweed plant response rating: 90
[3]; [13]
  Plant response rating, Pigweed: 100
[3]; [14]
  Plant response rating, Pigweed: 100
[3]; [15]
  Plant response rating, Pigweed: 100
[4]; 250 g ai/ha, 0 to 100 scale
  Plant response rating, Galium: 95
[4]; [10]
  Plant response rating, Galium: 0
[4]; [11]
  Plant response rating, Galium: 0
[4]; [16]
  Plant response rating, Galium: 70
[5]; 250 g ai/ha, 0 to 100 scale
  Plant response rating, Nightshade: 100
[5]; [10]
  Plant response rating, Nightshade: 90
[5]; [11]
  Plant response rating, Nightshade: 95
[5]; [16]
  Plant response rating, Nightshade: 98
[6]; 250 g ai/ha, 0 to 100 scale
  Plant response rating, Sunflower: 75
[6]; [10]
  Plant response rating, Sunflower: 10
[6]; [11]
  Plant response rating, Sunflower: 10
[6]; [16]
  Plant response rating, Sunflower: 70
[7]; [17]
  Plant response rating, Flood, Barnyardgrass: 55
[7]; [18]
  Plant response rating, Barnyardgrass: 0
[7]; [19]
  Plant response rating, Barnyardgrass: 0
[7]; [20]
  Plant response rating, Barnyardgrass: 40
[8]; [17]
  Plant response rating, Flood, Ducksalad: 70
[8]; [18]
  Plant response rating, Ducksalad: 0
[8]; [19]
  Plant response rating, Ducksalad: 0
[8]; [20]
  Plant response rating, Ducksalad: 40
Rice (Oryza sativa); [17]
  Plant response rating, Flood, Rice: 60
Rice (Oryza sativa); [18]
  Plant response rating, Rice: 0
Rice (Oryza sativa); [19]
  Plant response rating, Rice: 0
Rice (Oryza sativa); [20]
  Plant response rating, Rice: 50
[9]; [17]
  Plant response rating, Flood, Sedge, Umbrella: 40
[9]; [18]
  Plant response rating, Sedge, Umbrella: 20
[9]; [19]
  Plant response rating, Sedge, Umbrella: 30
[9]; [20]
  Plant response rating, Sedge, Umbrella: 30
